Laboratory results published in patent publication US6417235B2, “Method and use of α-amino-β-mercapto-ethane derivatives as dicarbonyl scavengers for treatment of conditions resulting from protein, lipid, and DNA damage” (University of Kentucky Research Foundation, priority 2000, dated 2002).

Assays:
ΦX-174 DNA = assay: AGE-BSA photosensitized cleavage of ΦX-174 DNA under solar simulated light; format: biochemical; conditions: for photosensitizing activity (DNA nicking): SSL 0.8-16 J/cm^2; for effect on AGE-BSA photosensitized DNA cleavage: solar simulated light, AGE-BSA as photosensitizer
Experimental: Glycated Proteins as Photosensitizers of DNA Damage in Skin Photoaging. D-Penicillamine inhibits genotoxic consequences of AGE-photosensitization. Accumulation of AGEs on dermal elastin and collagen occurs during normal skin aging in humans. The hypothesis was tested that the intra- and extracellular accumulation of the complex yellow-brown AGE-chromophores contributes to skin aging and carcinogenesis induced by chronic exposure to sunlight. As a possible molecular mechanisms for a detrimental synergism of AGE-formation and exposure to sunlight, photosensitized DNA damage by AGEs was assessed in a simple in vitro system. Irradiation of covalently closed circular ΦX-174 DNA with increasing doses of solar simulated light (SSL) in the presence of AGE-BSA was used to detect photosensitized DNA nicking as a measure of DNA photodamage (panel A). […] Addition of several antioxidants modulated the photosensitization effect (panel C).

HaCat keratinocytes = assay: AGE-photosensitization of human skin cells, growth inhibition under solar simulated light
Experimental: Human HaCat keratinocytes growing on 35 mm dishes were exposed to solar simulated light (1.2 kJ/m^2 UVB and 23 kJ/m^2 UVA) in the presence or absence of AGE-BSA as a model of a protein with advanced glycation endproducts. Control populations were treated in exactly the same way as described above, but were not exposed to solar simulated light (SSL).

CF-3 cells = assay: Protection of fibroblasts from alpha-dicarbonyl stress (cell count after 72 hour exposure); format: cell-based, human; conditions: FIG. 14
Experimental: (§1) A continuous cell line of human epidermal keratinocytes (HaCat cells) and human dermal fibroblasts (CF-3 cells) were routinely cultured in 75 cm^2 flasks and split biweekly in DMEM containing 10% fetal bovine serum and kept in a humidified atmosphere containing 5% CO2 at 37° C. Human keratinocytes were split using 5% trypsin and human fibroblasts employed 1% trypsin. All experiments were carried out on 6 well dishes (Falcon USA), where keratinocytes were seeded at 2×10^4 cells/well and fibroblasts at 4×10^4 cells/well. Cells were left overnight to attach to the plate and the appropriate carbonyl scavenger was then added 15 minutes prior to the addition of the alpha-dicarbonyl stress compounds glyoxal or methylglyoxal. Following 72 hour exposure to the stress compound, cells were counted with a Coulter counter. the protective effects of the alpha-dicarbonyl scavengers were assessed by comparing the growth of untreated cells with cells exposed to alpha-carbonyl stress +/− test compound.

histone H1 = assay: Histone H1 crosslinking by 12% SDS-PAGE with silver staining; format: biochemical, calf; conditions: 5 mM; histone H1, ADP-ribose reaction system
Experimental: The following screening scheme is used (see Table 1): AGE-fluorescence is determined at the beginning and after five days of incubation. Test compounds that are inherently fluorescent (designated false negatives) were identified by the initial fluorescence measurement (See Table 1, NADH for example). Since these are compounds of uncertain activity, they are diverted directly to the second stage of the screen. Aminoguanidine, a known glycation inhibitory agent, was used as a positive control for suppression of the increase on AGE-fluorescence. After five days incubation and plate reading, fluorescence quenchers (designated false positives) are excluded by measuring the quenching activity of the test compound by addition of AGE modified protein having known fluorescence activity to one microtiter plate well containing test compound in the complete reaction mixture. For this, AGE-BSA is used as the AGE-type fluorescence standard. This AGE-BSA test excludes false positives compounds that function by fluorescence quenching. If fluorescence quenching occurs the test compound is excluded from further screening. […] The protein is visualized by silver staining of the gel. […] A compound that passes the first and second stage of the screen is considered a glycation inhibitor and is further evaluated for biological activity as described below. […]

[1] = test system: glycation of histone H1 by ADP-ribose; assay: Screening of inhibitors of nonoxidative advanced glycation: AGE-fluorescence on 96 well-microtiter plate; format: biochemical, calf; conditions: (± SEM, n = 2); for AGE-fluorescence (day 5): complete reaction under air
Experimental: All operations were carried out at 4° C. Chromatin was isolated from fresh calf thymus by extraction with 0.14 M NaCl, 0.05 M Na2S2O5, as described earlier in Wondrak supra. After repeated extraction with 5% HCl)4 and centrifugation (1500 g), histone H1 was precipitated from the supernatant by addition of TCA (20% final concentration v/v). The histone H1 precipitate was colleted by centrifugation (12,000 g) and deionized water. After extensive dialysis (MW cut-off: 12,000-14,000) against water for 48 h, the sample was lyophilized and the protein was stored at 4° C. SDS-PAGE (12%) was used to analyze the purity of the preparation.
Earlier studies have reported that D-penicillamine inhibits collagen crosslinking and AGE fluorescence caused by sugars (McPherson, J. D., Shilton, B. H., and Walton, D. J. 1988. Role of Fructose in Glycation and Cross-Linking of Proteins. Biochemistry 27, 1901-1907) and reaction of D-penicillamine with aldehyde groups of proteins (Deshmukh, K., and Nimm, M. E. 1969. A Defect in the Intramolecular and Intermolecular Cross-linking of Collagen caused by Penicillamine. J. Biol. Chem. 244, 1787-1795). A number of different penicillamines and penicillamine derivatives were tested to determine the inhibition of AGE-fluorescence on histone H1 at physiological pH. The reaction conditions for the glycation of histone H1 by ADP-ribose mimic physiological conditions to the extent possible. Reaction mixtures contain 1.5 mg/ml histone Hl, 1.0 mM ADP-ribose, 50 mM potassium phosphate buffer, pH 7.4, 37° C. D,L-penicillamine; L-penicillamine; D-penicllamine; D-penicillaminedisulfide and N,S- isopropylidine-D-penicillamine were tested in concentrations of 1,5 and 10 mM. The detected reaction parameter representing the accumulation of protein damage is AGE-fluorescence ((λex=[…]), which is suppressed by the presence of a compound with inhibitory activity. Generation of AGE-type fluorescence (λex=355 nm; λem=405 nm) was monitored over time at 37° C; which is in the range of the broad excitation/emission maxima of AGE compounds. To allow high throughput sample processing on 96 well microtiter plates, the reaction volumes are 300 μl. Fluorescence on the 96-well microtiter plates was measured using an automated microtiter fluorescence reader. Fluorescence of the 1 ml samples of the glycation reaction mixtures was measured using a Hitachi F-200 fluorescence spectophotometer, and prior to measurement the protein sample is dialyzed extensively against water (MW cutoff=[…]), lyophilized and reconstituted in reaction buffer. For inhibitor screening the plate is read on a Fluoroskan II plate reader (Titertek, ICN) at the excitation/emission wavelengths set forth above at a bandwidth of 35 nm.
The following screening scheme is used (see Table 1): AGE-fluorescence is determined at the beginning and after five days of incubation. Test compounds that are inherently fluorescent (designated false negatives) were identified by the initial fluorescence measurement (See Table 1, NADH for example). Since these are compounds of uncertain activity, they are diverted directly to the second stage of the screen. Aminoguanidine, a known glycation inhibitory agent, was used as a positive control for suppression of the increase on AGE-fluorescence. After five days incubation and plate reading, fluorescence quenchers (designated false positives) are excluded by measuring the quenching activity of the test compound by addition of AGE modified protein having known fluorescence activity to one microtiter plate well containing test compound in the complete reaction mixture. For this, AGE-BSA is used as the AGE-type fluorescence standard. This AGE-BSA test excludes false positives compounds that function by fluorescence quenching. If fluorescence quenching occurs the test compound is excluded from further screening. […] The protein is visualized by silver staining of the gel. […]

HaCat cells = assay: Protection of keratinocytes from alpha-dicarbonyl stress (cell count after 72 hour exposure); format: cell-based, human; conditions: FIG. 14
Experimental: as §1

Unmodified BSA: unmodified bovine serum albumin
photosensitizing activity (DNA nicking) (ΦX-174 DNA): no such photosensitizing activity

[N-]=[N+]=[N-].[Na+] [NaN3]
effect on AGE-BSA photosensitized DNA cleavage (ΦX-174 DNA): blocked the photosensitized DNA cleavage

OC[C@@H](O)[C@@H](O)[C@H](O)[C@H](O)CO [Mannitol]
effect on AGE-BSA photosensitized DNA cleavage (ΦX-174 DNA): blocked the photosensitized DNA cleavage

AGE-BSA: Glycosylated Bovine Serum Albumin, BSA incubated with D-glucose for 90 days at 37° C.
photosensitizing activity (DNA nicking) (ΦX-174 DNA): the damage was concentration dependent | increase in growth inhibition as compared to SSL alone (HaCat keratinocytes; 10 mg/mL AGE-BSA with SSL): 4 fold | growth inhibition (HaCat keratinocytes; 10 mg/mL AGE-BSA with SSL (1.2 kJ/m^2 UVB and 23 kJ/m^2 UVA)): 80%

catalase
effect on AGE-BSA photosensitized DNA cleavage (ΦX-174 DNA): not effective

N=C(N)NN [Aminoguanidine]
protection from alpha-dicarbonyl stress (CF-3 cells): protection | inhibition of histone H1 crosslinking (histone H1): inhibit histone H1 crosslinking | AGE-fluorescence (day 0) ([1]; compound 1 mM): 1.2 (0.1) relative units | AGE-fluorescence (day 5) ([1]; compound 1 mM): 4.3 (0.2) relative units | AGE-fluorescence (day 0) ([1]; compound 5 mM): 1.2 (0.1) relative units | AGE-fluorescence (day 5) ([1]; compound 5 mM): 2.0 (0.0) relative units | AGE-fluorescence (day 0) ([1]; compound 10 mM): 1.3 (0.1) relative units | AGE-fluorescence (day 5) ([1]; compound 10 mM): 1.8 (0.0) relative units | protection from alpha-dicarbonyl stress (HaCat cells): protection
